In patent US7148193B2, “Compounds that bind to growth hormone receptor” (Antyra, Inc., priority 1997, dated 2006):
Where a SMILES comes first, the peptide text is derived from it. Bridges are numbered along the chain shown (N, C = ends).

Target: T1, rat growth hormone receptor (Rattus norvegicus, UniProt P16310)
T1 construct: expressed in transfected cells; host or cells: FDC-1 cells
T1 sequence (P16310 19-638): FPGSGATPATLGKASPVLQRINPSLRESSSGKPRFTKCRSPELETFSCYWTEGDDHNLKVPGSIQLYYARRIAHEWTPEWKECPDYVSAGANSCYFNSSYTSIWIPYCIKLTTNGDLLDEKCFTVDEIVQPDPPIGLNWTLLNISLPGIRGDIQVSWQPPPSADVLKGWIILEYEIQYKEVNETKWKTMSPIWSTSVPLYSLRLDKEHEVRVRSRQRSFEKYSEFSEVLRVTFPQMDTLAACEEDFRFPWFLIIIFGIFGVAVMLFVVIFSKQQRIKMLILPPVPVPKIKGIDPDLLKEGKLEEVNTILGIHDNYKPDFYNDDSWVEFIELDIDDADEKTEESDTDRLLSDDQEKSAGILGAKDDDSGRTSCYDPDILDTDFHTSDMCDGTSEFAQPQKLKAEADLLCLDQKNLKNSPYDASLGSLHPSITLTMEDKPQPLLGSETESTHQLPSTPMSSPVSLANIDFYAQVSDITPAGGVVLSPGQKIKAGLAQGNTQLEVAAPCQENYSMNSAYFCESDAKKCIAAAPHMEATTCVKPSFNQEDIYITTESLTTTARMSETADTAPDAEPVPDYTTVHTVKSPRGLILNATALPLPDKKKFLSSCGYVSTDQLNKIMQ
Test: Cell proliferation assay (WST-1) in FDC-1 cells stably transfected with rat growth hormone receptor
Type: cell-based
Settings: 18 h
Protocol: Cells transfected with rat GHR (50,000 cells per well) were incubated with either bovine GH, H5 peptide (SEQ ID NO:8), 447 peptide (SEQ ID NO:11) or control peptide (SEQ ID NO:10) for 18 h at 37° C. Experiments were done in triplicate. Background signal A450=0.15. […] Cells transfected with rat GHR (50,000 cells per well) containing […] bovine GH were incubated with either control peptide (SEQ ID NO:10), H5 peptide (SEQ ID NO:8) or 447 peptide (SEQ ID NO:11) for 18 h at 37° C. Proliferation was measured using WST-1 reagent. The “*” symbol corresponds to the A450 measurement for the cells incubated without GH.
Agonistic and antagonistic activities of the two peptides, H5WT (SEQ ID NO:8) and bP#447 ([…]), were tested in FDC-1 cells stably transfected with the gene encoding the rat growth hormone receptor. The resulting cell line required either IL-3 or GH for growth. The cells were grown in RPMI 1640 medium containing 10% FCS (fetal calf serum) and 20 units of IL-3 per ml. […] activity assays were performed in a total volume of 100 μl in 96 well plates (flat bottom). Cells were seeded at 50,000 cells/well in 50 μl RPMI 1640 (without IL-3) medium containing horse serum instead of FCS to reduce background. To duplicate wells, 50 μl of either growth hormone or peptides at different concentrations was added, followed by incubation for 18 h in a CO2 incubator. Assays to measure the antagonistic activity were performed in a total volume of 100 μl in 96 well plates. Either H5WT peptide (SEQ ID NO:8), bP#447 peptide (SEQ ID NO:11), or control peptide (SEQ ID NO:10) was added to cells containing 0.003 μM of bovine GH and incubated at 37° C. for 18 h in a CO2 incubator. Proliferation assays were performed using WST-1 reagent. The WST-1 tetrazolium salt (light red color) is cleaved to formazan (dark red color) by the succinate-tetrazolium reductase system, which is active only in viable cells. […] Ten microliters of WST-1 reagent was added and the plates incubated for 1–4 h 37° C. Proliferation was measured by absorbance at 450 nm.

antagonistic activity (cells with 0.003 μM bovine GH, at the concentrations tested): no antagonistic activity | agonistic activity (no GH added, WST-1 A450): partial agonistic activity
SMILES: CC(C)C[C@@H]1NC(=O)[C@H](CO)NC(=O)[C@H](CCC(N)=O)NC(=O)[C@@H](NC(=O)[C@H](CC(C)C)NC(=O)[C@H](CC(=O)O)NC(=O)[C@H](CCCCN)NC(=O)[C@H](Cc2ccc(O)cc2)NC(=O)[C@@H](N)CC(=O)O)CSSC[C@@H](C(=O)N[C@@H](C)C(=O)N[C@@H](CCCCN)C(=O)N[C@@H](CCCCN)C(=O)O)NC(=O)[C@H](Cc2c[nH]c3ccccc23)NC(=O)CNC(=O)[C@H](C)NC(=O)[C@H](CC(C)C)NC(=O)[C@H](Cc2c[nH]c3ccccc23)NC(=O)CNC(=O)[C@@H]2CCCN2C(=O)[C@H](Cc2ccc(O)cc2)NC(=O)[C@H]([C@@H](C)O)NC(=O)[C@H](C(C)C)NC(=O)CNC1=O [H5] (H-DYKDLCQSLGVTYPGWLAGWCAKK-OH; disulfide 6-21; N-terminus and C-terminus assumed)
